Source: patent publication US10167262B2, “Herbicidal substituted 3-arylpyrazoles” (FMC CORPORATION, priority 2014, dated 2019)

Experiments:
Format in all cases: in vivo
[1] = tested on: pigweed (Amaranthus retroflexus); assay: Test C pre-/postemergence greenhouse test, plant response rating 0-100
Outline: (§1)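 Pre-emergence soil and post-emergence foliar sprays were applied simultaneously to seeded loam–sand pots and to 1–4-leaf plants in peat medium; greenhouse holding lasted 13–15 days, then plants were scored visually from 0 (no effect) to 100 (complete control).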

[2] = tested on: ragweed (common ragweed, Ambrosia elatior); assay: as above
Outline: as §1

[3] = tested on: Italian ryegrass (Lolium multiflorum); assay: as above
Outline: as §1

[4] = tested on: velvetleaf (Abutilon theophrasti); assay: as above
Outline: as §1

corn (Zea mays) [5] = assay: as above
Outline: as §1

[6] = tested on: pigweed (Amaranthus retroflexus); assay: Test A pre-/postemergence greenhouse herbicide test, visual injury rating 0-100
Outline: (§2)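 Visual injury versus untreated controls, scored about 10 days after treatment on a 0 to 100 scale (0 = no effect, 100 = complete control). Applications were preemergence directed soil spray plus postemergence spray at one- to two-leaf stage, 2 to 10 cm plants.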

[7] = tested on: morningglory (Ipomoea spp.); assay: as above
Outline: as §2

[8] = tested on: giant foxtail (Setaria faberii); assay: as above
Outline: as §2

[9] = tested on: velvetleaf (Abutilon theophrasti); assay: as above
Outline: as §2

[10] = tested on: large (Lg) crabgrass (Digitaria sanguinalis); assay: as above
Outline: as §2

[11] = tested on: wheat (Triticum aestivum); assay: as above
Outline: as §2

[12] = tested on: barnyardgrass (Echinochloa crus-galli); assay: as above
Outline: as §2

corn (Zea mays) [13] = assay: as above
Outline: as §2

[14] = Postemergence, 250 g ai/ha, scale 0 to 100
[15] = Postemergence, 500 g ai/ha, scale 0 to 100

O=Cn1cc(C(=O)c2ccccc2)c(-c2cc(Cl)cc(Cl)c2)n1 [Compound 28]
Plant response rating (0 to 100), Pigweed ([1]; Postemergence, 62 g ai/ha): 90 | Plant response rating (0 to 100), Pigweed ([1]; Postemergence, 125 g ai/ha): 98 | Plant response rating, Pigweed [1, 14]: 98 | Plant response rating, Pigweed [1, 15]: 100 | Plant response rating, Pigweed ([1]; Preemergence, 62 g ai/ha): 100 | Plant response rating, Pigweed ([1]; Preemergence, 125 g ai/ha): 100 | Plant response rating, Pigweed ([1]; Preemergence, 250 g ai/ha): 100 | Plant response rating, Pigweed ([1]; Preemergence, 500 g ai/ha): 100 | Plant response rating (0 to 100), Ragweed ([2]; Postemergence, 62 g ai/ha): 60 | Plant response rating (0 to 100), Ragweed ([2]; Postemergence, 125 g ai/ha): 45 | Plant response rating, Ragweed [2, 14]: 70 | Plant response rating, Ragweed [2, 15]: 85 | Plant response rating, Ragweed ([2]; Preemergence, 62 g ai/ha): 65 | Plant response rating, Ragweed ([2]; Preemergence, 125 g ai/ha): 75 | Plant response rating, Ragweed ([2]; Preemergence, 250 g ai/ha): 90 | Plant response rating, Ragweed ([2]; Preemergence, 500 g ai/ha): 98 | Plant response rating (0 to 100), Ryegrass, Italian ([3]; Postemergence, 62 g ai/ha): 0 | Plant response rating (0 to 100), Ryegrass, Italian ([3]; Postemergence, 125 g ai/ha): 0 | Plant response rating, Ryegrass, Italian [3, 14]: 0 | Plant response rating, Ryegrass, Italian [3, 15]: 0 | Plant response rating, Ryegrass, Italian ([3]; Preemergence, 62 g ai/ha): 0 | Plant response rating, Ryegrass, Italian ([3]; Preemergence, 125 g ai/ha): 0 | Plant response rating, Ryegrass, Italian ([3]; Preemergence, 250 g ai/ha): 0 | Plant response rating, Ryegrass, Italian ([3]; Preemergence, 500 g ai/ha): 0 | Plant response rating (0 to 100), Velvetleaf ([4]; Postemergence, 62 g ai/ha): 80 | Plant response rating (0 to 100), Velvetleaf ([4]; Postemergence, 125 g ai/ha): 80 | Plant response rating, Velvetleaf [4, 14]: 85 | Plant response rating, Velvetleaf [4, 15]: 85 | Plant response rating, Velvetleaf ([4]; Preemergence, 62 g ai/ha): 65 | Plant response rating, Velvetleaf ([4]; Preemergence, 125 g ai/ha): 90 | Plant response rating, Velvetleaf ([4]; Preemergence, 250 g ai/ha): 98 | Plant response rating, Velvetleaf ([4]; Preemergence, 500 g ai/ha): 98 | Plant response rating (0 to 100), Corn (corn (Zea mays) [5]; Postemergence, 62 g ai/ha): 0 | Plant response rating (0 to 100), Corn (corn (Zea mays) [5]; Postemergence, 125 g ai/ha): 0 | Plant response rating, Corn (corn (Zea mays) [5]; [14]): 0 | Plant response rating, Corn (corn (Zea mays) [5]; [15]): 0 | Plant response rating, Corn (corn (Zea mays) [5]; Preemergence, 62 g ai/ha): 0 | Plant response rating, Corn (corn (Zea mays) [5]; Preemergence, 125 g ai/ha): 0 | Plant response rating, Corn (corn (Zea mays) [5]; Preemergence, 250 g ai/ha): 0 | Plant response rating, Corn (corn (Zea mays) [5]; Preemergence, 500 g ai/ha): 0 | Plant response rating (0 to 100 scale), Pigweed ([6]; Postemergence, 125 g ai/ha): 80 | Plant response rating (0 to 100 scale), Pigweed ([6]; Postemergence, 500 g ai/ha): 90 | Pigweed plant response rating (0 = no effect, 100 = complete control) ([6]; Preemergence, 125 g ai/ha): 80 | Plant response rating (0 to 100 scale), Pigweed ([6]; Preemergence, 500 g ai/ha): 90 | Plant response rating (0 to 100 scale), Morningglory ([7]; Postemergence, 125 g ai/ha): 0 | Plant response rating (0 to 100 scale), Morningglory ([7]; Postemergence, 500 g ai/ha): 0 | Morningglory plant response rating (0 = no effect, 100 = complete control) ([7]; Preemergence, 125 g ai/ha): 0 | Plant response rating (0 to 100 scale), Morningglory ([7]; Preemergence, 500 g ai/ha): 0 | Plant response rating (0 to 100 scale), Foxtail, Giant ([8]; Postemergence, 125 g ai/ha): 0 | Plant response rating (0 to 100 scale), Foxtail, Giant ([8]; Postemergence, 500 g ai/ha): 0 | Foxtail, Giant plant response rating (0 = no effect, 100 = complete control) ([8]; Preemergence, 125 g ai/ha): 0 | Plant response rating (0 to 100 scale), Foxtail, Giant ([8]; Preemergence, 500 g ai/ha): 0 | Plant response rating (0 to 100 scale), Velvetleaf ([9]; Postemergence, 125 g ai/ha): 80 | Plant response rating (0 to 100 scale), Velvetleaf ([9]; Postemergence, 500 g ai/ha): 90 | Velvetleaf plant response rating (0 = no effect, 100 = complete control) ([9]; Preemergence, 125 g ai/ha): 20 | Plant response rating (0 to 100 scale), Velvetleaf ([9]; Preemergence, 500 g ai/ha): 60 | Plant response rating (0 to 100 scale), Crabgrass, Large ([10]; Postemergence, 125 g ai/ha): 0 | Plant response rating (0 to 100 scale), Crabgrass, Large ([10]; Postemergence, 500 g ai/ha): 0 | Crabgrass, Large plant response rating (0 = no effect, 100 = complete control) ([10]; Preemergence, 125 g ai/ha): 0 | Plant response rating (0 to 100 scale), Crabgrass, Large ([10]; Preemergence, 500 g ai/ha): 0 | Plant response rating (0 to 100 scale), Wheat ([11]; Postemergence, 125 g ai/ha): 0 | Plant response rating (0 to 100 scale), Wheat ([11]; Postemergence, 500 g ai/ha): 0 | Wheat plant response rating (0 = no effect, 100 = complete control) ([11]; Preemergence, 125 g ai/ha): 0 | Plant response rating (0 to 100 scale), Wheat ([11]; Preemergence, 500 g ai/ha): 0 | Plant response rating (0 to 100 scale), Barnyardgrass ([12]; Postemergence, 125 g ai/ha): 0 | Plant response rating (0 to 100 scale), Barnyardgrass ([12]; Postemergence, 500 g ai/ha): 0 | Barnyardgrass plant response rating (0 = no effect, 100 = complete control) ([12]; Preemergence, 125 g ai/ha): 0 | Plant response rating (0 to 100 scale), Barnyardgrass ([12]; Preemergence, 500 g ai/ha): 0 | Plant response rating (0 to 100 scale), Corn (corn (Zea mays) [13]; Postemergence, 125 g ai/ha): 0 | Plant response rating (0 to 100 scale), Corn (corn (Zea mays) [13]; Postemergence, 500 g ai/ha): 0 | Corn plant response rating (0 = no effect, 100 = complete control) (corn (Zea mays) [13]; Preemergence, 125 g ai/ha): 0 | Plant response rating (0 to 100 scale), Corn (corn (Zea mays) [13]; Preemergence, 500 g ai/ha): 0
